tested on: primary human hepatocytes (PHH) 3D spheroids; assay: CD-spheroid hepatotoxicity: ATP viability (CellTiter-Glo) of PHH 3D spheroids after 14 days repeated exposure at 1×, 5×, 20× cmax; settings: not given

Molecule	Chemically defined spheroids (this study) 20x
Aflatoxin B1	Positive

same assay, conditions: PHH spheroids in chemically defined conditions, 20x Cmax

Molecule	Chemically defined spheroids (this study) 20x
CC(CCc1ccc(O)cc1)NCCc1ccc(O)c(O)c1 (stereo not shown) [Dobutamine]	Negative
Cn1nnc2c(C(N)=O)ncn2c1=O [Temozolomide]	Negative
CC(COc1ccccc1)N(CCCl)Cc1ccccc1 (stereo not shown) [Phenoxybenzamine]	Negative
COC(c1ccccc1)(c1ccccc1)[C@H](Oc1nc(C)cc(C)n1)C(=O)O [Ambrisentan]	Negative

same assay, conditions: PHH spheroids, 1×, 5×, 20× cmax, 14 days repeated exposure, ATP

Molecule	hepatotoxicity evaluation in CD-spheroids
COC(c1ccccc1)(c1ccccc1)[C@H](Oc1nc(C)cc(C)n1)C(=O)O [Ambrisentan]	did not result in a significant reduction of hepatocyte viability

tested on: not given; assay: not given; settings: ref DrugBank and Prescribers' Digital Reference database; cited from earlier work

Molecule	Extent of hepatic metabolism
CC(CCc1ccc(O)cc1)NCCc1ccc(O)c(O)c1 (stereo not shown) [Dobutamine]	Extensive
Cn1nnc2c(C(N)=O)ncn2c1=O [Temozolomide]	Minimal
Cc1ccc(C(=O)c2cc(O)c(O)c([N+](=O)[O-])c2)cc1 [Tolcapone]	Extensive
COC(c1ccccc1)(c1ccccc1)[C@H](Oc1nc(C)cc(C)n1)C(=O)O [Ambrisentan]	Extensive

tested on: primary human hepatocytes (PHH) 3D spheroids; assay: not given; settings: not given

Molecule	Chemically defined spheroids (this study) 20x
Cc1ccc(C(=O)c2cc(O)c(O)c([N+](=O)[O-])c2)cc1 [Tolcapone]	Positive

tested on: PHH spheroids (hanging-drop); assay: not given; settings: PHH hanging-drop spheroids, 100x Cmax; ref Proctor 2017; cited from earlier work

Molecule	Hanging-drop spheroids (Proctor 2017) 100x
Cc1ccc(C(=O)c2cc(O)c(O)c([N+](=O)[O-])c2)cc1 [Tolcapone]	Positive
COC(c1ccccc1)(c1ccccc1)[C@H](Oc1nc(C)cc(C)n1)C(=O)O [Ambrisentan]	Negative

same assay, conditions: cited from earlier work

Molecule	Hanging-drop spheroids (Proctor 2017) 100x
CC(COc1ccccc1)N(CCCl)Cc1ccccc1 (stereo not shown) [Phenoxybenzamine]	Negative

tested on: not given; assay: not given; settings: human, in vivo; cited from earlier work

Molecule	Cmax
CC(COc1ccccc1)N(CCCl)Cc1ccccc1 (stereo not shown) [Phenoxybenzamine]	180 nM
Aflatoxin B1	30 nM

same assay, conditions: therapeutic total cmax; ref PMID; cited from earlier work

Molecule	Cmax
CC(CCc1ccc(O)cc1)NCCc1ccc(O)c(O)c1 (stereo not shown) [Dobutamine]	1340 nM
Cn1nnc2c(C(N)=O)ncn2c1=O [Temozolomide]	26800 nM
Cc1ccc(C(=O)c2cc(O)c(O)c([N+](=O)[O-])c2)cc1 [Tolcapone]	47600 nM
COC(c1ccccc1)(c1ccccc1)[C@H](Oc1nc(C)cc(C)n1)C(=O)O [Ambrisentan]	2270 nM

tested on: PHH 2D sandwich cultures; assay: not given; settings: PHH 2D sandwich cultures, 100x Cmax; ref Xu 2008; cited from earlier work

Molecule	2Dsw (Xu 2008) 100x
CC(CCc1ccc(O)cc1)NCCc1ccc(O)c(O)c1 (stereo not shown) [Dobutamine]	Negative
Cn1nnc2c(C(N)=O)ncn2c1=O [Temozolomide]	Negative

same assay, conditions: cited from earlier work

Molecule	2Dsw (Xu 2008) 100x
CC(COc1ccccc1)N(CCCl)Cc1ccccc1 (stereo not shown) [Phenoxybenzamine]	Negative

tested on: not listed separately; assay: in vitro; settings: human

Molecule	viability at 14 days, 1 × cmax
Cc1ccc(C(=O)c2cc(O)c(O)c([N+](=O)[O-])c2)cc1 [Tolcapone]	< 10%

tested on: clinical DILI in man; assay: not given; settings: DILI classification score; ref Guo et al. (2005); cited from earlier work

Molecule	Guo et al. (2005)
Cn1nnc2c(C(N)=O)ncn2c1=O [Temozolomide]	1

same assay, conditions: FDA drug labeling DILI concern; ref Chen et al., 2011; cited from earlier work

Molecule	FDA (Severity)
CC(CCc1ccc(O)cc1)NCCc1ccc(O)c(O)c1 (stereo not shown) [Dobutamine]	no DILI concern
COC(c1ccccc1)(c1ccccc1)[C@H](Oc1nc(C)cc(C)n1)C(=O)O [Ambrisentan]	less DILI concern

same assay, conditions: FDA drug labeling DILI score; ref Chen et al., 2011; cited from earlier work

Molecule	FDA (0-8)
CC(CCc1ccc(O)cc1)NCCc1ccc(O)c(O)c1 (stereo not shown) [Dobutamine]	0
Cn1nnc2c(C(N)=O)ncn2c1=O [Temozolomide]	4
COC(c1ccccc1)(c1ccccc1)[C@H](Oc1nc(C)cc(C)n1)C(=O)O [Ambrisentan]	7

same assay, conditions: clinical DILI classification in man (POS/NEG); cited from earlier work

Molecule	DILI in vivo
CC(CCc1ccc(O)cc1)NCCc1ccc(O)c(O)c1 (stereo not shown) [Dobutamine]	NEG
Cn1nnc2c(C(N)=O)ncn2c1=O [Temozolomide]	NEG
COC(c1ccccc1)(c1ccccc1)[C@H](Oc1nc(C)cc(C)n1)C(=O)O [Ambrisentan]	NEG

same assay, conditions: clinical DILI classification used in this study, Supplementary Table 2; ref Chen et al., 2011; Guo et al., 2005; O'Brien et al., 2006; Sakatis et al., 2012; Suzuki et al., 2010; Xu et al., 2008; cited from earlier work

Molecule	Classified as
CC(CCc1ccc(O)cc1)NCCc1ccc(O)c(O)c1 (stereo not shown) [Dobutamine]	NEG
Cn1nnc2c(C(N)=O)ncn2c1=O [Temozolomide]	NEG
COC(c1ccccc1)(c1ccccc1)[C@H](Oc1nc(C)cc(C)n1)C(=O)O [Ambrisentan]	NEG

same assay, conditions: clinical DILI classification, Supplementary Table 1; ref Chen et al., 2011; Guo et al., 2005; O'Brien et al., 2006; Sakatis et al., 2012; Suzuki et al., 2010; Xu et al., 2008; cited from earlier work

Molecule	DILI in vivo
CC(CCc1ccc(O)cc1)NCCc1ccc(O)c(O)c1 (stereo not shown) [Dobutamine]	NEG
Cn1nnc2c(C(N)=O)ncn2c1=O [Temozolomide]	NEG
COC(c1ccccc1)(c1ccccc1)[C@H](Oc1nc(C)cc(C)n1)C(=O)O [Ambrisentan]	NEG

same assay, conditions: clinical DILI classification; ref Xu et al. (2008); cited from earlier work

Molecule	Xu et al. (2008)
CC(CCc1ccc(O)cc1)NCCc1ccc(O)c(O)c1 (stereo not shown) [Dobutamine]	Negative
Cn1nnc2c(C(N)=O)ncn2c1=O [Temozolomide]	Negative

same assay, conditions: in vivo; cited from earlier work

Molecule	Classified as	Clinical DILI class (panel heading of Figure 4)	DILI in vivo	FDA (0-8)	FDA (Severity)	Guo et al. (2005)	Suzuki et al. (2010)	Type of DILI	Sakatis et al. (2012)	Xu et al. (2008)
Cc1ccc(C(=O)c2cc(O)c(O)c([N+](=O)[O-])c2)cc1 [Tolcapone]	POS	Severe DILI	POS	8	most DILI concern	3	3	Hepatocellular injury or Mixed hepatitis	–	–
CC(COc1ccccc1)N(CCCl)Cc1ccccc1 (stereo not shown) [Phenoxybenzamine]	NEG	DILI negative	NEG	0	no DILI concern	–	–	Non-hepatotoxic	non-hepatotixic	Negative
Aflatoxin B1	POS	–	POS	–	–	–	–	Hepatocellular injury	–	–

same assay, conditions: reported pattern of liver damage, Supplementary Table 2; ref literature; cited from earlier work

Molecule	Type of DILI
CC(CCc1ccc(O)cc1)NCCc1ccc(O)c(O)c1 (stereo not shown) [Dobutamine]	Non-hepatotoxic
Cn1nnc2c(C(N)=O)ncn2c1=O [Temozolomide]	Non-hepatotoxic
COC(c1ccccc1)(c1ccccc1)[C@H](Oc1nc(C)cc(C)n1)C(=O)O [Ambrisentan]	Non-hepatotoxic

same assay, conditions: structural analogue pairs, Figure 5; ref Chen et al., 2011; Xu et al., 2008 and others; cited from earlier work

Molecule	Clinical DILI classification (Figure 5)
COC(c1ccccc1)(c1ccccc1)[C@H](Oc1nc(C)cc(C)n1)C(=O)O [Ambrisentan]	DILI negative

Reference: PMC5974779, “Prediction of Drug-Induced Hepatotoxicity Using Long-Term Stable Primary Hepatic 3D Spheroid Cultures in Chemically Defined Conditions” (Toxicological Sciences, 2018)
